Series [1] concerns calcium-sensitive potassium channel. The note with it: known from PCT WO99/36068; cited from earlier work.
Series [2] is described as follows: plasma half life of the drug. Particulars: in vivo.

With `Cc1c(-c2ccccc2F)[nH]c(N)c1C#N` [2-amino-3-cyano-5-(2-fluorophenyl)-4-methylpyrrole], in series [1], the “potassium channel activating effect” value is “bladder-selective calcium-sensitive potassium channel activating effect”. Further, the plasma half life entry in series [2] is “short plasma half life”.
